Experimental data as given in patent US5464861A, “2-thioindoles (selenoindoles) and related disulfides (selenides) which inhibit protein tyrosine kinases and which have antitumor properties” (Warner-Lambert, priority 1993, dated 1995).

These compounds were tested against T1, epidermal growth factor receptor tyrosine kinase (Homo sapiens, UniProt P00533) (assay: EGF receptor tyrosine kinase assay (P^32 incorporation in GAT)). Settings: not given.
T1 construct: A native 170,000 epidermal growth factor receptor-kinase complex from shed plasma membrane vesicles; endogenous in cells
T1 sequence (P00533 25-1210): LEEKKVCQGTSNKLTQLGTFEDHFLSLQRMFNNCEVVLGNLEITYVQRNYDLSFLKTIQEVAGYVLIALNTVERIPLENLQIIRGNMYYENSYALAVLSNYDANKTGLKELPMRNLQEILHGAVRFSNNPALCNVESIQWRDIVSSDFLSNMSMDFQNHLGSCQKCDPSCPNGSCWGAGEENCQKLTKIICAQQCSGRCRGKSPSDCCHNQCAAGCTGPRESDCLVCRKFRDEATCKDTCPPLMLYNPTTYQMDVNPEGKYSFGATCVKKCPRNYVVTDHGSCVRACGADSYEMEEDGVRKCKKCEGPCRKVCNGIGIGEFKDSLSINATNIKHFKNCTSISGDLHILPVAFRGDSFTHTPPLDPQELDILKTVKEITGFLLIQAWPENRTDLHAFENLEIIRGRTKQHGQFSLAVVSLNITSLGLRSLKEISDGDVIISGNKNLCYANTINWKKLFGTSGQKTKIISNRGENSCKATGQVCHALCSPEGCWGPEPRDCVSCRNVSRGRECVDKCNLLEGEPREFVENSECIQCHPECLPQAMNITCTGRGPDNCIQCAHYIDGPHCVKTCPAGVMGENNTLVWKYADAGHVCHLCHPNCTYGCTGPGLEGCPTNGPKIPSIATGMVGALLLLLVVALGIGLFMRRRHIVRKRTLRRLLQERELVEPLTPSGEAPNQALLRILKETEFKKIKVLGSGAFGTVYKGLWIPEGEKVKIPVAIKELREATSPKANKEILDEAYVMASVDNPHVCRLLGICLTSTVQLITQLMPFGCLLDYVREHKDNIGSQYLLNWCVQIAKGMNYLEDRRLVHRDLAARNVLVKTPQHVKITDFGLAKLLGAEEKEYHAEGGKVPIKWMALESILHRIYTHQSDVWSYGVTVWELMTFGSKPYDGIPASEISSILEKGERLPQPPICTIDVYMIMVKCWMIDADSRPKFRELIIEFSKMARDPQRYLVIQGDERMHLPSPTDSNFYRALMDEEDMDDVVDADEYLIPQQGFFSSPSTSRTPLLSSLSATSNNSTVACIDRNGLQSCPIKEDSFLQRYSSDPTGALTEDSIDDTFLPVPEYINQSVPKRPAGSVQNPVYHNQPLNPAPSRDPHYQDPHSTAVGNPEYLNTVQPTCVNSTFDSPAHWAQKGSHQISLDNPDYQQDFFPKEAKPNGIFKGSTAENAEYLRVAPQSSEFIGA
T1 sequence (P01133 971-1023 partner limits assumed): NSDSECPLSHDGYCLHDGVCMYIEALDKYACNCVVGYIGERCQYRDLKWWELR
Assay type: biochemical
Experimental: At the time of assay, membranes were solubilized in 4% Triton X-100 and glycerol. The reaction is carried out in wells of a 96-well microtiter plate in a total volume of […]. Buffer containing 20 mMHepes (pH 7.4), 15 mMMgCl2, mM MnCl2, and 0.02% BSA followed by […] of membrane protein and 150 ng of epidermal growth factor. The plates are incubated for 10 minutes at room temperature to activate the receptor kinase. […] ATP plus or minus compound are added and incubated 10 minutes at room temperature.
`O=[N+]([O-])CCc1c(SSc2[nH]c3ccccc3c2CC[N+](=O)[O-])[nH]c2ccccc12` [Compound 49, 2,2'-dithiobis[3-(2-nitroethyl)indole]] showed an IC50 of 84.1 µM.

Same assay, conditions: Table 2, EGRF-R; IC50 entries; read-out: IC50 (EGFR TK)
In the case of `NC(=O)CCC1C(=S)Nc2ccccc21` (stereo not drawn) [Compound 14, 3-(2-thioxo-3-indolinyl)propanamide], the IC50 is reported as 22 µM. Work on `CN1C(=S)C(CCCC(=O)O)c2ccccc21` (stereo not drawn) [Compound 16, 4-(1-methyl-2-thioxo-3-indolyl) butanoic acid] yielded an IC50 of 23 µM. For `CC(=O)Oc1cccc2c(C(=O)Nc3ccccc3)c(SSc3c(C(=O)Nc4ccccc4)c4cccc(OC(C)=O)c4n3C)n(C)c12` [Compound 95, 2,2'-dithiobis[N-phenyl-7-acetoxy-1-methylindolyl-3-carboxamide]], the IC50 was 9.4 µM. `O=C(NCc1ccccc1)C(O)Cc1c(SSc2[nH]c3ccccc3c2CC(O)C(=O)NCc2ccccc2)[nH]c2ccccc12` (stereo not drawn) [Compound 64, 2,2'-dithiobis[α-hydroxy-N -(phenylmethyl)-1H-indole-3-propanamide]] was tested, and the IC50 was 29 µM. `Cn1c(SSc2c(C#N)c3ccccc3n2C)c(C#N)c2ccccc21` [Compound 120] gave an IC50 of 6.9 µM. Work on `Cn1c(SSc2c(C(=O)c3ccc(C(=O)O)cc3)c3ccccc3n2C)c(C(=O)c2ccc(C(=O)O)cc2)c2ccccc21` [Compound 101, bis[3-(4'-carboxybenzoyl)-1-methylindole-(2)]disulfide] yielded an IC50 of 5.5 µM. Work on `O=C(O)CCCc1c(SSc2[nH]c3ccccc3c2CCCC(=O)O)[nH]c2ccccc12` [Compound 65, bis[indolyl-3-butanoic acid-(2)]disulfide] yielded an IC50 of 17.8 µM. `COC(=O)c1ccc(C(=O)c2c(SSc3c(C(=O)c4ccc(C(=O)OC)cc4)c4ccccc4n3C)n(C)c3ccccc23)cc1` [Compound 102, bis[3-(4'-carbomethoxybenzoyl)-1-methylindole-(2)]disulfide] gave an IC50 of 6.1 µM. `CNC(=O)CCc1c(SSc2[nH]c3ccccc3c2CCC(=O)NC)[nH]c2ccccc12` [Compound 51] showed an IC50 of 7 µM. `Cn1c(SSc2c(C(=O)Nc3cccc(C(=O)O)c3)c3ccccc3n2C)c(C(=O)Nc2cccc(C(=O)O)c2)c2ccccc21` [Compound 107, 2,2'-dithiobis[N-(3-carboxy)phenyl-1-methylindolyl-3-carboxamide]] gave an IC50 of 12 µM. For `O=C(O)CC1C(=S)Nc2ccccc21` (stereo not drawn) [Compound 1, 2-(2-thioxo-3-indolinyl)acetic acid], the IC50 was 14.9 µM. `CN1C(=S)C(C(=O)Nc2ccccc2)c2cc(Cl)ccc21` (stereo not drawn) [Compound 20, N-phenyl 5-chloro-1-methyl-2-thioxoindole-3-carboxamide] gave an IC50 of 9 µM. `Cn1c(SSc2c(CCCC(=O)O)c3ccccc3n2C)c(CCCC(=O)O)c2ccccc21` [Compound 66] was tested, and the IC50 was 8.3 µM. `Cn1c(SSc2c(CCC(=O)O)c3ccccc3n2C)c(CCC(=O)O)c2ccccc21` [Compound 37] gave an IC50 of 3.3 µM. `COC(=O)c1ccc(CNC(=O)c2c(SSc3c(C(=O)NCc4ccc(C(=O)OC)cc4)c4ccccc4n3C)n(C)c3ccccc23)cc1` [Compound 110, 2,2'-dithiobis [N-(4'-carbomethoxy)benzyl 1-methylindolyl-3-carboxamide]] showed an IC50 of 13 µM. With `CC(=O)c1c(SSc2c(C(C)=O)c3ccccc3n2C)n(C)c2ccccc12` [Compound 121, 2,2'-dithiobis(3-acetyl-1-methylindole)] the IC50 was 5.6 µM. For `CN1C(=S)C(CCC(=O)O)c2ccccc21` (stereo not drawn) [Compound 8, 3-(1-methyl-2-thioxo-3-indolinyl)propanoic acid], the IC50 was 8.5 µM. With `O=C(O)CCCC1C(=S)Nc2ccccc21` (stereo not drawn) [Compound 15, 4-(2-thioxo-3-indolinyl)butanoic acid] the IC50 was 6.8 µM. `N#CCCc1c(SSc2[nH]c3ccccc3c2CCC#N)[nH]c2ccccc12` [Compound 48, 2,2'-dithiobis[3-indolylpropionitrile]] gave an IC50 of 35.5 µM. Work on `CNC(=O)c1c(SSc2[nH]c3ccccc3c2C(=O)NC)[nH]c2ccccc12` [Compound 127, 2,2'-dithiobis[N-methylindolinyl-3-carboxamide]] yielded an IC50 of 6.8 µM.

Same assay, conditions: at 100 μM; EGRF-R; read-out: % Inhibition at 100 μM (EGFR TK)
`COC(=O)CCC1C(=S)N(C)c2ccccc21` (stereo not drawn) [Compound 11, methyl 3-(1-methyl-2-thioxo-3-indolinyl)propanoate] was tested, and the inhibition at 100 µM was 24%. `CCOC(=O)CCc1c(SSc2[nH]c3ccc(C)cc3c2CCC(=O)OCC)[nH]c2ccc(C)cc12` [Compound 42, bis[ethyl 5-methylindolyl-3-propanoate-(2)]disulfide] gave an inhibition at 100 µM of 26%. For `COC(=O)c1ccccc1NC(=O)c1c(SSc2c(C(=O)Nc3ccccc3C(=O)OC)c3ccccc3n2C)n(C)c2ccccc12` [Compound 108, 2,2'-dithiobis [N-(2-carbomethoxy)phenyl-1-methylindolyl-3-carboxamide]], the inhibition at 100 µM was 20%. In the case of `CN1C(=S)C(CC(=O)O)c2ccccc21` (stereo not drawn) [Compound 2, 2-(1-methyl-2-thioxo-3-indolinyl)acetic acid], the inhibition at 100 µM is reported as 26%. For `CCOC(=O)CCC1C(=S)N(C)c2ccccc21` (stereo not drawn) [Compound 12, ethyl 3-(1-methyl-2-thioxo-3-indolinyl)propanoate], the inhibition at 100 µM was 3%. Compound `O=C(CCC1C(=S)Nc2ccccc21)NCc1ccccc1` (stereo not drawn) [Compound 13, N-benzyl 3-(2-thioxo-3-indolinyl) propanamide] has an inhibition at 100 µM of 43%. `Cn1c([Se][Se]c2c(C(=O)OC(C)(C)C)c3ccccc3n2C)c(C(=O)OC(C)(C)C)c2ccccc21` [Compound 129, 2,2'-diselenobis [1-methyl-1H-indole-3-carboxylic acid, t-butyl ester]] showed an inhibition at 100 µM of 31%. For `COC(=O)c1ccc(NC(=O)c2c(SSc3c(C(=O)Nc4ccc(C(=O)OC)cc4)c4ccccc4n3C)n(C)c3ccccc23)cc1` [Compound 104, 2,2'-dithiobis [N-(4'-carbomethoxy)phenyl-1-methylindolyl-3-carboxamide]], the inhibition at 100 µM was 20%. Work on `COC(=O)CC1C(=S)N(C)c2ccccc21` (stereo not drawn) [Compound 4, methyl 2-(1-methyl-2-thioxo-3-indolinyl)acetate] yielded an inhibition at 100 µM of 27%. In the case of `CC(=O)Oc1ccc2c(C(=O)Nc3ccccc3)c(SSc3c(C(=O)Nc4ccccc4)c4ccc(OC(C)=O)cc4n3C)n(C)c2c1` [Compound 93, 2,2'-dithiobis [N-phenyl-6-acetoxy-1-methylindolyl-3-carboxamide]], the inhibition at 100 µM is reported as 30%. Work on `O=C(NCc1ccccc1)c1c(SSc2[nH]c3ccccc3c2C(=O)NCc2ccccc2)[nH]c2ccccc12` [Compound 125, 2,2'-dithiobis [N-benzylindolyl-3-carboxamide]] yielded an inhibition at 100 µM of 78%. In the case of `O=C(CCc1c(SSc2[nH]c3ccccc3c2CCC(=O)NCc2ccc(C(=O)O)c(O)c2)[nH]c2ccccc12)NCc1ccc(C(=O)O)c(O)c1` [Compound 58], the inhibition at 100 µM is reported as 68%. `CCOC(=O)CC1C(=S)N(C)c2ccccc21` (stereo not drawn) [Compound 5, ethyl 2-(1-methyl-2-thioxo-3-indolinyl)acetate] was tested, and the inhibition at 100 µM was 4%.

Same assay, conditions: read-out: IC50 (EGFR TK)
`Cn1c([Se][Se]c2c(C(=O)O)c3ccccc3n2C)c(C(=O)O)c2ccccc21` [Compound 130, 2,2'-diselenobis [1-methyl-1H-indole-3-carboxylic acid]] gave an IC50 of 3.5 µM. In the case of `CCN(CC)CCn1c([Se][Se]c2c(C(=O)NC)c3ccccc3n2CCN(CC)CC)c(C(=O)NC)c2ccccc21` [Compound 135, 2,2'-diselenobis [1-[2-(diethylamino)ethyl] -N-methyl-1H-indole-3-carboxamide]], the IC50 is reported as 6.9 µM.
